# Results reported in US4492650A, “A54556 Antibiotics and process for production thereof” (Eli Lilly and Company, priority 1982, dated 1985).
# Where “and” joins values, the source holds several entries; their conditions need not be identical. Equal values may be shown once. Read-outs that look alike come from different tables or passages of the source. Bridge positions count the residues as written; N and C are the ends. Square brackets hold non-standard residues; d marks the D form. Peptide text beside a SMILES is read from it. * marks the point of attachment. ξ: configuration not given here. Hexadienoyl(2E,4E) = C/C=C/C=C/C(=O)*; ξPro(4ξ-Me) = CC1CNC(C(=O)O)C1; NMeA = CN[CH](C)C(=O)O; X1 = O=C(/C=C/C=C/CO)*
# Assays:
# [1] = test system: Streptococcus sp. (Group D) X66; assay: Disc-plate sensitivity; type: cell-based; conditions: second test, Table 13; for zone of inhibition at 30 µg/disc / zone of inhibition at 300 µg/disc: Streptococcus; for zone of inhibition at 30 µg/disc: read-out: Zone diameter, 30 mcg./disc; for zone of inhibition at 300 µg/disc: read-out: Zone diameter, 300 mcg./disc
# Bacteroides fragilis 111 = assay: MIC, agar-dilution method; type: cell-based
# Description: (§1) Antibiotic A54556 factors A, B, C, D, E, F, G, and H have been tested and found to be active against a number of anaerobic bacteria, as recorded in Table 14, which follows, the MIC values having been determined by the agar-dilution method.
# [2] = test system: Bacteroides fragilis 1877; assay: MIC, agar-dilution method; type: cell-based
# Description: as §1
# [3] = test system: Bacteroides fragilis 1936B; assay: MIC, agar-dilution method; type: cell-based
# Description: as §1
# [4] = test system: Bacteroides melaninogenicus 1856/28; assay: MIC, agar-dilution method; type: cell-based; conditions: Prevotella intermedia
# Description: as §1
# [5] = test system: Bacteroides melaninogenicus 2736; assay: MIC, agar-dilution method; type: cell-based
# Description: as §1
# [6] = test system: Bacteroides thetaiotaomicron 1438; assay: MIC, agar-dilution method; type: cell-based
# Description: as §1
# [7] = test system: Clostridium difficile 2994; assay: MIC, agar-dilution method; type: cell-based; conditions: Clostridioides difficile
# Description: as §1
# [8] = test system: Clostridium septicum 1128; assay: MIC, agar-dilution method; type: cell-based
# Description: as §1
# [9] = test system: Eubacterium aerofaciens 1235; assay: MIC, agar-dilution method; type: cell-based; conditions: Collinsella aerofaciens
# Description: as §1
# [10] = test system: Fusobacterium necrophorum 6054A; assay: MIC, agar-dilution method; type: cell-based
# Description: as §1
# [11] = test system: Peptostreptococcus intermedius 1264; assay: MIC, agar-dilution method; type: cell-based
# Description: as §1
# [12] = test system: Propionibacterium acnes 79; assay: MIC, agar-dilution method; type: cell-based; conditions: Cutibacterium acnes
# Description: as §1
# [13] = test system: Clostridium perfringens 81; assay: microbe, parasite or virus in culture; type: cell-based
# [14] = test system: Peptococcus asaccharolyticus 1302; assay: MIC, agar-dilution method; type: cell-based; conditions: Peptoniphilus asaccharolyticus
# Peptococcus prevoti 1281 = assay: MIC, agar-dilution method; type: cell-based
# [15] = test system: Peptostreptococcus anaerobius 1428; assay: MIC, agar-dilution method; type: cell-based
# [16] = test system: Bacteroides vulgatis 1211; assay: MIC, agar-dilution method; type: cell-based
# [17] = test system: Bacteroides corrodens 1874; assay: MIC, agar-dilution method; type: cell-based; conditions: Eikenella corrodens
# [18] = test system: Fusobacterium symbiosum 1470; assay: MIC, agar-dilution method; type: cell-based
# S. pyogenes = assay: In vivo protection against experimental bacterial infection in mice; conditions: Streptococcus pyogenes, sc, two doses subcutaneously
# Protocol: (§2) When two doses of test compound were administered subcutaneously to mice in illustrative infections, the activity is measured as an ED50 value [effective does in mg./kg. to protect fifty percent of the test animals: See Warren Wick et al., J. Bacteriol. 81, 233-235 (1961)]. The ED50 values for these antibiotic A54556 factors are recorded in Table 15, which follows.
# Electrometric titration = type: physicochemical; conditions: 66 percent dimethylformamide in water
# Description: Antibiotic A54556 factor A is a tan, amorphous solid. […] As determined by electron impact and field desorption mass spectrometry, A54556 factor A has a molecular weight of 718.
# anaerobic bacteria = assay: Activity against anaerobic bacteria; type: cell-based; conditions: agar-dilution method
# [19] = test system: experimental bacterial infections; assay: In vivo antimicrobial activity against experimental bacterial infections; conditions: mice, subcutaneously
# Protocol: as §2
# [20] = test system: Staphylococcus aureus 3055; conditions: second test, Table 13, benzylpenicillin-susceptible
# [21] = test system: Streptococcus pyogenes (Group A) C203; conditions: second test, Table 13
# [22] = test system: Streptococcus pneumoniae Park I; conditions: second test, Table 13
# [23] = test system: Staphylococcus aureus V41; conditions: second test, Table 13, benzylpenicillin resistant
# [24] = test system: Staphylococcus epidermidis EPI1; conditions: second test, Table 13
# Solubility = conditions: lower alcohols (methyl, ethyl, isopropyl, n-propyl, n-butyl), acetone, ethyl acetate, tetrahydrofuran, pyridine, dimethyl sulfoxide
structure (smiles),measurement,setting,value
"C/C=C/C=C/C(=O)NC(Cc1ccccc1)C(=O)NC1COC(=O)C2CCCN2C(=O)C(C)NC(=O)C(C)N(C)C(=O)C2CCCN2C1=O (stereo not shown) [Factor E] ({Hexadienoyl(2E,4E)}-FSP[NMeA]AP; ester 2-C; configuration not given here)",Zone diameter,"[1]; 30 mcg./disc, listed as E",21 mm.
same,Zone diameter,[1]; 300 mcg./disc,27 mm.
same,zone of inhibition at 30 µg/disc,[1],22 mm
same,zone of inhibition at 300 µg/disc,[1],28 mm
same,MIC,Bacteroides fragilis 111,> 128 µg/mL
same,MIC,[2],> 128 µg/mL
same,MIC,[3],> 128 µg/mL
same,MIC,[4],> 128 µg/mL
same,MIC,[5],> 128 µg/mL
same,MIC,[6],> 128 µg/mL
same,MIC,[7],> 128 µg/mL
same,MIC,[8],> 128 µg/mL
same,MIC,[9],> 128 µg/mL
same,MIC,[10],> 128 µg/mL
same,MIC,[11],> 128 µg/mL
same,MIC,[12],> 128 µg/mL
same,MIC,[13],> 128 µg/mL
same,MIC,[14],64 µg/mL
same,MIC,Peptococcus prevoti 1281,128 µg/mL
same,MIC,[15],> 128 µg/mL
same,MIC,[16],> 128 µg/mL
same,MIC,[17],> 128 µg/mL
same,MIC,[18],128 µg/mL
same,ED50,S. pyogenes,> 70 mg/kg
same,titratable groups,Electrometric titration,no titratable groups
same,activity against a number of anaerobic bacteria,anaerobic bacteria,active
same,in vivo antimicrobial activity against experimental bacterial infections,[19],have shown in vivo antimicrobial activity
same,Zone diameter,[20]; 30 mcg./disc,17 mm.
same,Zone diameter,"[20]; 30 mcg./disc, listed as E",15 mm.
same,Zone diameter,[20]; 300 mcg./disc,23 mm.
same,Zone diameter,"[21]; 30 mcg./disc, listed as E",20 mm. and 18 mm.
same,Zone diameter,[21]; 300 mcg./disc,30 mm. and 24 mm.
same,Zone diameter,[22]; 30 mcg./disc,25 mm.
same,Zone diameter,"[22]; 30 mcg./disc, listed as E",22 mm.
same,Zone diameter,[22]; 300 mcg./disc,35 mm. and 28 mm.
same,Zone diameter,[23]; 30 mcg./disc,17 mm.
same,Zone diameter,"[23]; 30 mcg./disc, listed as E",13 mm.
same,Zone diameter,[23]; 300 mcg./disc,27 mm. and 23 mm.
same,Zone diameter,"[24]; 30 mcg./disc, listed as E",13 mm. and 11 mm.
same,Zone diameter,[24]; 300 mcg./disc,25 mm. and 24 mm.
same,solubility in organic solvents,Solubility,soluble
CC1CC2C(=O)N(C)C(C)C(=O)NC(C)C(=O)N3CCCC3C(=O)OCC(NC(=O)C(Cc3ccccc3)NC(=O)/C=C/C=C/CO)C(=O)N2C1 (stereo not shown) [Factor H] (X1-FS[ξPro(4ξ-Me)][NMeA]AP; ester 2-C; configuration not given here),zone of inhibition at 30 µg/disc,[1],21 mm
same,zone of inhibition at 300 µg/disc,[1],27 mm
same,MIC,Bacteroides fragilis 111,> 128 µg/mL
same,MIC,[2],> 128 µg/mL
same,MIC,[3],> 128 µg/mL
same,MIC,[4],> 128 µg/mL
same,MIC,[5],> 128 µg/mL
same,MIC,[6],> 128 µg/mL
same,MIC,[7],> 128 µg/mL
same,MIC,[8],> 128 µg/mL
same,MIC,[9],> 128 µg/mL
same,MIC,[10],> 128 µg/mL
same,MIC,[11],> 128 µg/mL
same,MIC,[12],> 128 µg/mL
same,MIC,[13],> 128 µg/mL
same,MIC,[14],> 128 µg/mL
same,MIC,Peptococcus prevoti 1281,> 128 µg/mL
same,MIC,[15],128 µg/mL
same,MIC,[16],> 128 µg/mL
same,MIC,[17],> 128 µg/mL
same,MIC,[18],> 128 µg/mL
same,ED50,S. pyogenes,9.9 mg/kg
same,titratable groups,Electrometric titration,no titratable groups
same,activity against a number of anaerobic bacteria,anaerobic bacteria,active
same,in vivo antimicrobial activity against experimental bacterial infections,[19],have shown in vivo antimicrobial activity
same,Zone diameter,[20]; 30 mcg./disc,8 mm.
same,Zone diameter,[20]; 300 mcg./disc,11 mm.
same,Zone diameter,[21]; 30 mcg./disc,30 mm.
same,Zone diameter,[21]; 300 mcg./disc,32 mm.
same,Zone diameter,[22]; 30 mcg./disc,25 mm.
same,Zone diameter,[22]; 300 mcg./disc,36 mm.
same,Zone diameter,[23]; 30 mcg./disc,10 mm.
same,Zone diameter,[23]; 300 mcg./disc,14 mm.
same,Zone diameter,[24]; 30 mcg./disc,12 mm.
same,Zone diameter,[24]; 300 mcg./disc,24 mm.
